Entries after “also recorded” stand apart in the source; their conditions may differ.
Columns and labels:
[1] = biological target: T1, purified 20S proteasome from human erythrocytes (Homo sapiens, UniProt P28074); assay: 20S proteasome chymotrypsin-like activity assay (Suc-LLVY-AMC); format: biochemical
T1 construct: purified 20S proteasome from human erythrocyte; purchased Enzo Life Sciences; host or cells: human erythrocytes (tissue-purified)
Experimental: Aaptamine was tested against HCT116 colon cancer cells and cell viability was assessed after 48 h using an MTT (3-(4,5-dimethyl dimethylthiazol-2-yl)-2,5-diphenyltetrazolium bromide) assay. […] The results agreed with the findings of Kobayashi et al. that aaptamine at concentrations of 20–50 µM increased the expression of the cyclin-dependent kinase inhibitor p21, a protein known to act as a negative regulator of cell cycle progression, thus preventing cell proliferation. […] To alternatively explain the activity of aaptamine, we tested the compound for its ability to inhibit the chymotrypsin-like activity of a purified 20S proteasome from human erythrocytes. Proteasome inhibitors are validated anticancer agents. Aaptamine was able to inhibit the enzyme activity by 41% at 50 µM (Figure 2b). […] In our study, aaptamine had similar IC50 values for cancer cell growth inhibition and proteasome inhibition in vitro (~50 µM).
The 20S proteasome assay kit from Enzo Life Sciences (NY, USA) is a fluorogenic, non-radioactive assay designed to measure the chymotrypsin-like protease activity of purified 20S proteasome from human erythrocyte. […] The fluorescence was then measured at an excitation of 360 nm and emission of 460 nm using a SpectraMax M5 plate reader (Molecular Device). The data were recorded every 2 min for 20 min. […]

[2] = biological target: ADRA2A (Homo sapiens, UniProt P08913); assay: PathHunter β-arrestin assay, antagonist mode; format: cell-based
Chain of ADRA2A (P08913 whole entry): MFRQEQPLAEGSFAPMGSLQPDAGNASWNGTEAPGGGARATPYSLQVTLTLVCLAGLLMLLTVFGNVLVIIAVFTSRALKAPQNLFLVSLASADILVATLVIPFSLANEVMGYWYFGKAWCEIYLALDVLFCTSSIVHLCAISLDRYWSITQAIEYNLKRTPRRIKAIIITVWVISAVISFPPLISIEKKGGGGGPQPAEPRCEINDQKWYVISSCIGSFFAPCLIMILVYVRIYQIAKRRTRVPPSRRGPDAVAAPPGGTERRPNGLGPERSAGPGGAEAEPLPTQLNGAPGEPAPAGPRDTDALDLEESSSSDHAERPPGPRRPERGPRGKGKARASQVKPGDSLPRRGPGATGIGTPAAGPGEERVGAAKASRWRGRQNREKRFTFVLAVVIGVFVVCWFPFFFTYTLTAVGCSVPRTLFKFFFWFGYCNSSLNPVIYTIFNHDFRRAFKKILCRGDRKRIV
Experimental: The assay was performed by DiscoverX Corporation (Fremont, CA) using PathHunter β -arrestin enzyme fragment complementation (EFC) technology, in a similar way to that described elsewhere [35, 36]. The PathHunter cell lines were taken from freezer stocks according to standard procedures. A total of 20 µL of cells were seeded into white 384-well plates and incubated at 37 °C for the appropriate time prior to testing.
(§3) The assays were performed at 10-point concentrations using three-fold serial dilutions in duplicate. For all the assay formats, the final assay vehicle concentration was 1%.

[3] = biological target: T2, HTR1E (Homo sapiens, UniProt P28566); assay: PathHunter β-arrestin assay, positive allosteric modulation (PAM) mode; format: cell-based; details: dose-response, control agonist at EC20
T2 sequence (P28566 whole entry): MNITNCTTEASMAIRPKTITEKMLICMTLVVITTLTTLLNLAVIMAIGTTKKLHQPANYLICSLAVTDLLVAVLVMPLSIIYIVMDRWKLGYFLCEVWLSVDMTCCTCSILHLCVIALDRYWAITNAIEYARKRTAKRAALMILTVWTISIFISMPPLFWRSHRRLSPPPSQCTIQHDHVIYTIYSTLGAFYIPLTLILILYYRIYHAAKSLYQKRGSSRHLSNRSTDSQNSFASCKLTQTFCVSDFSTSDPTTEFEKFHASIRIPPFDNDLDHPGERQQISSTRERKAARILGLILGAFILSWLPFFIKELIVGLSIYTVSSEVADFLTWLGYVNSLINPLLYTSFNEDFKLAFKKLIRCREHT
Experimental: as §3
For PAM assays, the cells were preincubated with the sample followed by agonist induction at the EC20 concentration. To the cells, 5 µL of 5X sample was added and incubated for 30 min at 37 °C or room temperature. Following the incubation period, 5 µL of the 6X EC20 agonist prepared in an assay buffer was added to the cells and incubated for 90 or 180 min at 37 °C or room temperature.

[4] = biological target: SSTR1 (Homo sapiens, UniProt P30872); assay: PathHunter β-arrestin primary screen, antagonist mode (potentiator hit); format: cell-based; details: control agonist at EC80, negative inhibition = potentiation, read-out: % Activation or inhibition, primary screen
Chain of SSTR1 (P30872 whole entry, the tested form may be a part): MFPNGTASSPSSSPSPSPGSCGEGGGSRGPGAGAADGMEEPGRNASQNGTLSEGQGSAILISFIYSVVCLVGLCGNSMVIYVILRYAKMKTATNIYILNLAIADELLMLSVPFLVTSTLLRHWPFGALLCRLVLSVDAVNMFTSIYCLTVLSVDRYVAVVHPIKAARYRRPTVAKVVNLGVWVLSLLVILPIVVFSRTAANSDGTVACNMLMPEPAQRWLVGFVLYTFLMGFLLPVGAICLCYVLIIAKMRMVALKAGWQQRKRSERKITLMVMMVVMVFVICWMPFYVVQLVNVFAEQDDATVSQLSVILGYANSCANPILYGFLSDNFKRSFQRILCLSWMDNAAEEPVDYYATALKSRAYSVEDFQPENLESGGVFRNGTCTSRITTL
Experimental: (§1) Aaptamine (20 µM) was profiled in gpcrMAX panel biosensor assays (in agonist and antagonist modes) against a panel of 168 GPCRs. The assay was performed by DiscoverX Corporation (Fremont, CA) using PathHunter β -arrestin enzyme fragment complementation (EFC) technology, in a similar way to that described elsewhere. The PathHunter cell lines were taken from freezer stocks according to standard procedures. A total of 20 µL of cells were seeded into white 384-well plates and incubated at 37 °C for the appropriate time prior to testing.
(§2) For antagonist determination, PathHunter cells were preincubated with aaptamine followed by the addition of an agonist. In this assay format, the standard agonist was added at an EC80 concentration. To the plate that contained the cells, 5 µL of the 5X sample was added and incubated for 30 min at 37 °C or room temperature. After the incubation period, 5 µL of the 6X EC80 agonist in an assay buffer was added to the cells and incubated for additional 90 or 180 min at 37 °C or room temperature.

[5] = biological target: T3, CCR3 (Homo sapiens, UniProt P51677); assay: as above; format: cell-based; details: control agonist at EC80, negative inhibition = potentiation, read-out: Primary Screen Maximal Response, % Inhibition or Activation
T3 sequence (P51677 1-355): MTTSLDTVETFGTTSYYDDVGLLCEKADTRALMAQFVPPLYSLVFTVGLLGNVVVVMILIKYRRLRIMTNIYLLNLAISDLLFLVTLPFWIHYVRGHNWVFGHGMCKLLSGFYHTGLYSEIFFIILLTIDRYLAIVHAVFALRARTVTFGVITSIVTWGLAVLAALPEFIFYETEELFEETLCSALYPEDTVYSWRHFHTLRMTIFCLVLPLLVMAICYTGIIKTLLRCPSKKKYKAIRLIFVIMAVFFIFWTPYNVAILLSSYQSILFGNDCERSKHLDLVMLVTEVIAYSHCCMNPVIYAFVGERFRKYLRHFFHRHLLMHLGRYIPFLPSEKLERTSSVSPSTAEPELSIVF
Experimental: as §1, §2

[6] = biological target: OPRK1 (Homo sapiens, UniProt P41145); assay: as above; format: cell-based; details: control agonist at EC80, negative inhibition = potentiation, read-out: % Activation or inhibition, primary screen
Chain of OPRK1 (P41145 whole entry): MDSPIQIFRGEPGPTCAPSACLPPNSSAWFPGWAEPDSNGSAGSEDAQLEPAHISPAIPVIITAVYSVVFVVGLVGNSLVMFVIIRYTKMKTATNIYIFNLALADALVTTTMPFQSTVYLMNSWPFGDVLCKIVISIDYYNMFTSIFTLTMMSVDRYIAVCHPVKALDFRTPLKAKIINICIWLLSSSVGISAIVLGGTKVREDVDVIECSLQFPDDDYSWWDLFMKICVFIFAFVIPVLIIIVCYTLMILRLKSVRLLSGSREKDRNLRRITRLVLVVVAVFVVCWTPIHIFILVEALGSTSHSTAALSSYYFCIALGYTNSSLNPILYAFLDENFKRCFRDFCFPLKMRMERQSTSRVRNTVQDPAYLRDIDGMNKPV
Experimental: as §1, §2

[7] = biological target: T4, CXCR3 (Homo sapiens, UniProt P49682); assay: as above; format: cell-based; details: control agonist at EC80, negative inhibition = potentiation, read-out: Primary Screen Maximal Response, % Inhibition or Activation
T4 sequence (P49682 1-368): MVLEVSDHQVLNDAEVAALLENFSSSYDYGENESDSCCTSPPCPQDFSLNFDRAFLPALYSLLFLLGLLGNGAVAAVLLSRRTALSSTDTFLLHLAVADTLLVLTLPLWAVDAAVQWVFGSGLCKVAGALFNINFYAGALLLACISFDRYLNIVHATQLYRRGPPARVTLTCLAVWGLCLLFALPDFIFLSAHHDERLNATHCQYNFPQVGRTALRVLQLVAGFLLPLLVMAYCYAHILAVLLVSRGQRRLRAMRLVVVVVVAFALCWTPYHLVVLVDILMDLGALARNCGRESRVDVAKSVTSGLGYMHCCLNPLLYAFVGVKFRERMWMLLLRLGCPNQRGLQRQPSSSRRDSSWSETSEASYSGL
Experimental: as §1, §2

[8] = biological target: T2, HTR1E; assay: as above; format: cell-based; details: control agonist at EC80, negative inhibition = potentiation, read-out: % Activation or inhibition, primary screen
Experimental: as §1, §2

[9] = biological target: DRD2S (Homo sapiens, UniProt P14416); assay: PathHunter β-arrestin assay, antagonist mode; format: cell-based
Chain of DRD2S (P14416 1-414 isoform P14416-2): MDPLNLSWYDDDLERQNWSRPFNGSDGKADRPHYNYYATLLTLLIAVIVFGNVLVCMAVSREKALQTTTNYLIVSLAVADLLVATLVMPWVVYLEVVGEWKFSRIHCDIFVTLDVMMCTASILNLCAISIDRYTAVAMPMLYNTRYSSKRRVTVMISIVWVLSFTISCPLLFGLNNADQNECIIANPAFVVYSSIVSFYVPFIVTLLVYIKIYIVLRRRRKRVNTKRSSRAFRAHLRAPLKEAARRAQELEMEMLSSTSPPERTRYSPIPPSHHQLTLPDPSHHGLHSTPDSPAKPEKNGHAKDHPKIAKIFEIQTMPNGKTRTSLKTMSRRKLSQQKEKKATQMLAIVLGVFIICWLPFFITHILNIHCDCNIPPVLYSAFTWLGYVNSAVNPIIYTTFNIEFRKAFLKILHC
Experimental: as §1, §2
Hit validation was performed by subjecting the aaptamine to an agonist, antagonist, and positive allosteric modulation (PAM) secondary screen utilizing thirteen GPCR biosensor assays (Arrestin) against the following targets: ADRA2A, ADRA2C, ADRB2, CCR1, CCR3, CXCR3, CXCR7, DRD2L, DRD2S, DRD4, HTR1E, OPRK1, and SSTR1. […]

[10] = tested on: Saccharomyces cerevisiae (BY4741); assay: Yeast growth inhibition assay; format: cell-based; details: up to 50 µM, 24 h
Text: Each treatment was done in triplicate.

[11] = dose-response analysis, read-out: Dose-Response Maximal Response, % Inhibition

COc1cc2ccnc3c2c(c1OC)NC=C3 [aaptamine]
inhibition at 50 µM ([1]; 50 µM, 10 min preincubation, read-out: inhibition of enzyme activity (chymotrypsin-like)): 41%
IC50 ([1]; read-out: IC50 proteasome inhibition in vitro): ~50 µM
Emax [2, 11]: 63.4%
IC50 ([2]; dose-response, antagonist mode): 56.1 µM
validation of potentiator hit under PAM conditions [3]: false positives; also recorded: did not validate
inhibition at 20 µM [4]: -46%
Emax at 20 µM [5]: 49%
inhibition at 20 µM [6]: -46%
Emax at 20 µM [7]: 69%
inhibition at 20 µM [8]: -47%
Emax [9, 11]: 74.4%
IC50 ([9]; dose-response, antagonist mode): 25.7 µM
growth inhibitory activity [10]: did not observe growth inhibitory activity
